According to ChEMBL document CHEMBL5058649, “Data for DCP probe BAY 1816032” (2022):

What was measured:
[1] = target: Mitogen-activated protein kinase kinase kinase 12 (Homo sapiens) (UniProt Q12852); assay: DLK DiscoveRx kinase panel; conditions: Compound concentration 1.0 uM
[2] = target: RAC-alpha serine/threonine-protein kinase (Homo sapiens) (UniProt P31749); assay: AKT1 DiscoveRx kinase panel; conditions: Compound concentration 1.0 uM
[3] = target: Serine/threonine-protein kinase MARK2 (Homo sapiens) (UniProt Q7KZI7); assay: MARK2 DiscoveRx kinase panel; conditions: Compound concentration 1.0 uM
[4] = target: SRSF protein kinase 3 (Homo sapiens) (UniProt Q9UPE1); assay: SRPK3 DiscoveRx kinase panel; conditions: Compound concentration 1.0 uM
[5] = target: Insulin receptor-related protein (Homo sapiens) (UniProt P14616); assay: INSRR DiscoveRx kinase panel; conditions: Compound concentration 1.0 uM
[6] = target: Mitogen-activated protein kinase 12 (Homo sapiens) (UniProt P53778); assay: p38-gamma DiscoveRx kinase panel; conditions: Compound concentration 1.0 uM
[7] = target: Cyclin-dependent kinase 2 (Homo sapiens) (UniProt P24941); assay: CDK2 DiscoveRx kinase panel; conditions: Compound concentration 1.0 uM
[8] = target: Insulin-like growth factor 1 receptor (Homo sapiens) (UniProt P08069); assay: IGF1R DiscoveRx kinase panel; conditions: Compound concentration 1.0 uM
[9] = target: LIM domain kinase 2 (Homo sapiens) (UniProt P53671); assay: LIMK2 DiscoveRx kinase panel; conditions: Compound concentration 1.0 uM
MDA-MB-468 = assay: MDA-MB-468 cell line Proliferation assay; assay type: functional, Homo sapiens; conditions: time 4 day
[10] = target: Mitogen-activated protein kinase kinase kinase kinase 2 (Homo sapiens) (UniProt Q12851); assay: MAP4K2 DiscoveRx kinase panel; conditions: Compound concentration 1.0 uM
Chain of Mitogen-activated protein kinase kinase kinase kinase 2 (Homo sapiens) (Q12851 whole entry): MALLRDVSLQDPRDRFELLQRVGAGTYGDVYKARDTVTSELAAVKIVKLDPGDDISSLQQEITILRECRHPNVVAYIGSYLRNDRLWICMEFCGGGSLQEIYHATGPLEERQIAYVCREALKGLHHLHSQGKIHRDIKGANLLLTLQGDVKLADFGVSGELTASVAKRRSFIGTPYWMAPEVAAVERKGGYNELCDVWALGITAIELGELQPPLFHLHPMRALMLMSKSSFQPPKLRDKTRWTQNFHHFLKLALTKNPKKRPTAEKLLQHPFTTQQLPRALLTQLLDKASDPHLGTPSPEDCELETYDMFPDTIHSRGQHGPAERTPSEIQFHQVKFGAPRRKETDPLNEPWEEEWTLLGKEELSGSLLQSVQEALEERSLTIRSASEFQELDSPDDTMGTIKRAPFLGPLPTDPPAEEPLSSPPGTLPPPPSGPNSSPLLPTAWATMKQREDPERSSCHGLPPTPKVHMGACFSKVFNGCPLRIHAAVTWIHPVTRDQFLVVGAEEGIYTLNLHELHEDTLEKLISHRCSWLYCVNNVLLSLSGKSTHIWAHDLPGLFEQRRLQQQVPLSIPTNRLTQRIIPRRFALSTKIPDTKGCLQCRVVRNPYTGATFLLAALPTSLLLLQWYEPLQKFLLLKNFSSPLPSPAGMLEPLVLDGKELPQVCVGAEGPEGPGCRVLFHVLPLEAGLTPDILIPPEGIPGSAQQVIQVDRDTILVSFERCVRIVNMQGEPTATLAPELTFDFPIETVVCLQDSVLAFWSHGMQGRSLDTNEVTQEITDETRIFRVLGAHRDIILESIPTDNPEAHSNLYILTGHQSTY

[11] = target: Phosphatidylinositol 4-kinase beta (Homo sapiens) (UniProt Q9UBF8); assay: PIK4CB DiscoveRx kinase panel; conditions: Compound concentration 1.0 uM
[12] = target: Mitogen-activated protein kinase 11 (Homo sapiens) (UniProt Q15759); assay: p38-beta DiscoveRx kinase panel; conditions: Compound concentration 1.0 uM
[13] = target: Serine/threonine-protein kinase 25 (Homo sapiens) (UniProt O00506); assay: YSK1 DiscoveRx kinase panel; conditions: Compound concentration 1.0 uM
[14] = target: Dual specificity mitogen-activated protein kinase kinase 1 (Homo sapiens) (UniProt Q02750); assay: MEK1 DiscoveRx kinase panel; conditions: Compound concentration 1.0 uM
Chain of Dual specificity mitogen-activated protein kinase kinase 1 (Homo sapiens) (Q02750 whole entry): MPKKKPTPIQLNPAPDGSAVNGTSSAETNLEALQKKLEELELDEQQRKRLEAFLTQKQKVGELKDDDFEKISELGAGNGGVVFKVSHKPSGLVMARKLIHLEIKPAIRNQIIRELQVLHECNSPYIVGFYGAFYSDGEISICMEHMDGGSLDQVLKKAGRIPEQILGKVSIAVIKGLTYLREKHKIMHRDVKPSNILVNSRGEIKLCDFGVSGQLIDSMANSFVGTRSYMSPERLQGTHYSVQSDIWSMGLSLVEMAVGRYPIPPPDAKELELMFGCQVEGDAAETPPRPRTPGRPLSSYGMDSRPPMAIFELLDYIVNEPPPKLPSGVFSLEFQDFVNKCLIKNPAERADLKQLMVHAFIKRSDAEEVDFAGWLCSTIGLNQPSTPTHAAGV

[15] = target: Serine/threonine-protein kinase pim-2 (Homo sapiens) (UniProt Q9P1W9); assay: PIM2 DiscoveRx kinase panel; conditions: Compound concentration 1.0 uM
Chain of Serine/threonine-protein kinase pim-2 (Homo sapiens) (Q9P1W9 whole entry, looked up): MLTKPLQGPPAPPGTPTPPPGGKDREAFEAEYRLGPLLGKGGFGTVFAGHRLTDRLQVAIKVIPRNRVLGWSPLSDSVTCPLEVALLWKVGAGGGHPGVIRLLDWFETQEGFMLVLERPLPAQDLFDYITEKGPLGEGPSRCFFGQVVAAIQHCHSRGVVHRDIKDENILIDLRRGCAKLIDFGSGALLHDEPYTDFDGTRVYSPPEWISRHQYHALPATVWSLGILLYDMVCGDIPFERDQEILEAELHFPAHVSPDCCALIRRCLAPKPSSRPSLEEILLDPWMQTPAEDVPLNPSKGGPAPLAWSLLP

[16] = target: Ephrin type-A receptor 8 (Homo sapiens) (UniProt P29322); assay: EPHA8 DiscoveRx kinase panel; conditions: Compound concentration 1.0 uM
[17] = target: Ephrin type-A receptor 4 (Homo sapiens) (UniProt P54764); assay: EPHA4 DiscoveRx kinase panel; conditions: Compound concentration 1.0 uM
[18] = target: Phosphatidylinositol 4,5-bisphosphate 3-kinase catalytic subunit alpha isoform (Homo sapiens) (UniProt P42336); assay: PIK3CA DiscoveRx kinase panel; conditions: Compound concentration 1.0 uM
[19] = target: Death-associated protein kinase 2 (Homo sapiens) (UniProt Q9UIK4); assay: DAPK2 DiscoveRx kinase panel; conditions: Compound concentration 1.0 uM
[20] = target: D(1B) dopamine receptor (Homo sapiens) (UniProt P21918); conditions: Compound concentration 10.0 uM
Chain of D(1B) dopamine receptor (Homo sapiens) (P21918 whole entry): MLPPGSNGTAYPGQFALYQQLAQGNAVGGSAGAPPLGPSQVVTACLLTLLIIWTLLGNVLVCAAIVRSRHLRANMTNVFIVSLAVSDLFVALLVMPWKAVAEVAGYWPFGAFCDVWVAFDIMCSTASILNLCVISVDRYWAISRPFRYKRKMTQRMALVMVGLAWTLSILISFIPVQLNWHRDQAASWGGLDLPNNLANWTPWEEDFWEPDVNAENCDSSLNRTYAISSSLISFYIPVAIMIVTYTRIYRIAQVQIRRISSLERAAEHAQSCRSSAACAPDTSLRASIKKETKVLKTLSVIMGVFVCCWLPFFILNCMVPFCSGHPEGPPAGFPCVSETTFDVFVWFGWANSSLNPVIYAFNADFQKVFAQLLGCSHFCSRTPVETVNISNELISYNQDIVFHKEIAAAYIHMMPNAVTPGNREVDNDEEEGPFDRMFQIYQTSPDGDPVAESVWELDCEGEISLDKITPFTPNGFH

[21] = target: Serine/threonine-protein kinase NLK (Homo sapiens) (UniProt Q9UBE8); assay: NLK DiscoveRx kinase panel; conditions: Compound concentration 1.0 uM
Chain of Serine/threonine-protein kinase NLK (Homo sapiens) (Q9UBE8 whole entry): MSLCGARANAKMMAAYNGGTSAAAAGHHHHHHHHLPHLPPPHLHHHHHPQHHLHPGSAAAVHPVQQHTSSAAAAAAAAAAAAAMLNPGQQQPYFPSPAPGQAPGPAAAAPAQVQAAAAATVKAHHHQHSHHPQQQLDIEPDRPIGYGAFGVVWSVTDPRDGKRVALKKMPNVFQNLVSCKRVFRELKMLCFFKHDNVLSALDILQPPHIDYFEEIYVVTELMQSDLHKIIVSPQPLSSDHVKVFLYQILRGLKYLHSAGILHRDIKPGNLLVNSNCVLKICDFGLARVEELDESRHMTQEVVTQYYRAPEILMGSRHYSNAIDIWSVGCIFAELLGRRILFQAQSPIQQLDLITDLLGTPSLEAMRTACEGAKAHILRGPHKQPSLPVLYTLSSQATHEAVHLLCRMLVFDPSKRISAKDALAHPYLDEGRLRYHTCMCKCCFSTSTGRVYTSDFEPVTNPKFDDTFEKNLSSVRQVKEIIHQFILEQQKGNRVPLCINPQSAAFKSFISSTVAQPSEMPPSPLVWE

[22] = target: 5-hydroxytryptamine receptor 2B (Homo sapiens) (UniProt P41595); conditions: Compound concentration 10.0 uM
Chain of 5-hydroxytryptamine receptor 2B (Homo sapiens) (P41595 whole entry): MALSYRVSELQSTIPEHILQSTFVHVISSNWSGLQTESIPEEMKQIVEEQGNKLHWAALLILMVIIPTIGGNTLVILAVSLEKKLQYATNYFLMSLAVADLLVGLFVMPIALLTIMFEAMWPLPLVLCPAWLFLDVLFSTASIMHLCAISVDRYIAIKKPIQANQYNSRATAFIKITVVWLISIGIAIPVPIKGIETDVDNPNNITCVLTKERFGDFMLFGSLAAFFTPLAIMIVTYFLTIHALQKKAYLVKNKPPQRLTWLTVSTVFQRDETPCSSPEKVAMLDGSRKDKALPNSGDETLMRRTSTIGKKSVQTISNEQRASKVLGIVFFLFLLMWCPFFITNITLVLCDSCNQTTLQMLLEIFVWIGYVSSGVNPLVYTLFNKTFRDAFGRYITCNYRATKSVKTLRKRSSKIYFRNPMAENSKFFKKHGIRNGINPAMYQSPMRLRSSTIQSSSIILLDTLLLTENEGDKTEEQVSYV

[23] = target: Substance-P receptor (Homo sapiens) (UniProt P25103); assay: Inhibition of Tachykinin NK1 at 10 µM in the Eurofins-Panlabs radioligand binding assay (Eurofins_assay_255520); design: ligand concentration 0.8 nM; conditions: Compound concentration 10.0 uM
[24] = target: Tyrosine-protein kinase Blk (Homo sapiens) (UniProt P51451); assay: BLK DiscoveRx kinase panel; conditions: Compound concentration 1.0 uM
Chain of Tyrosine-protein kinase Blk (Homo sapiens) (P51451 2-505 limits assumed): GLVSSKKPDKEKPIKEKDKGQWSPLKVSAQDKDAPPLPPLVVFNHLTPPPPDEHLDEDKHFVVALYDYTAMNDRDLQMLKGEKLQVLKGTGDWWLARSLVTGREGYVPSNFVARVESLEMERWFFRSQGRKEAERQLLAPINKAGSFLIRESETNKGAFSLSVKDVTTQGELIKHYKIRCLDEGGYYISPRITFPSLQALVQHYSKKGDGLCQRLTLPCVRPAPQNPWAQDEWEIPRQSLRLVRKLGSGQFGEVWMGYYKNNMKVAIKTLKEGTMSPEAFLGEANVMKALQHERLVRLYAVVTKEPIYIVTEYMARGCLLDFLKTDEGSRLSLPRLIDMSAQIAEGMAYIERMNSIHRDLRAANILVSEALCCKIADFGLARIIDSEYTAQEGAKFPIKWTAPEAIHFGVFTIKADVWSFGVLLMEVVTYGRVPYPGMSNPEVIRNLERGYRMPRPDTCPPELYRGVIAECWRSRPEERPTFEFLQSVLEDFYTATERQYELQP

[25] = target: Serine/threonine-protein kinase ULK1 (Homo sapiens) (UniProt O75385); assay: ULK1 DiscoveRx kinase panel; conditions: Compound concentration 1.0 uM
[26] = target: High affinity nerve growth factor receptor (Homo sapiens) (UniProt P04629); assay: TRKA DiscoveRx kinase panel; conditions: Compound concentration 1.0 uM
[27] = target: Mitogen-activated protein kinase kinase kinase 1 (Homo sapiens) (UniProt Q13233); assay: MAP3K1 DiscoveRx kinase panel; conditions: Compound concentration 1.0 uM
[28] = target: Acetylcholinesterase (Homo sapiens) (UniProt P22303); conditions: Compound concentration 10.0 uM
[29] = target: Phosphorylase b kinase gamma catalytic chain, skeletal muscle/heart isoform (Homo sapiens) (UniProt Q16816); assay: PHKG1 DiscoveRx kinase panel; conditions: Compound concentration 1.0 uM
[30] = target: Dual specificity mitogen-activated protein kinase kinase 4 (Homo sapiens) (UniProt P45985); assay: MEK4 DiscoveRx kinase panel; conditions: Compound concentration 1.0 uM
[31] = target: Tyrosine-protein kinase Lyn (Homo sapiens) (UniProt P07948); assay: LYN DiscoveRx kinase panel; conditions: Compound concentration 1.0 uM
Chain of Tyrosine-protein kinase Lyn (Homo sapiens) (P07948 2-512 limits assumed): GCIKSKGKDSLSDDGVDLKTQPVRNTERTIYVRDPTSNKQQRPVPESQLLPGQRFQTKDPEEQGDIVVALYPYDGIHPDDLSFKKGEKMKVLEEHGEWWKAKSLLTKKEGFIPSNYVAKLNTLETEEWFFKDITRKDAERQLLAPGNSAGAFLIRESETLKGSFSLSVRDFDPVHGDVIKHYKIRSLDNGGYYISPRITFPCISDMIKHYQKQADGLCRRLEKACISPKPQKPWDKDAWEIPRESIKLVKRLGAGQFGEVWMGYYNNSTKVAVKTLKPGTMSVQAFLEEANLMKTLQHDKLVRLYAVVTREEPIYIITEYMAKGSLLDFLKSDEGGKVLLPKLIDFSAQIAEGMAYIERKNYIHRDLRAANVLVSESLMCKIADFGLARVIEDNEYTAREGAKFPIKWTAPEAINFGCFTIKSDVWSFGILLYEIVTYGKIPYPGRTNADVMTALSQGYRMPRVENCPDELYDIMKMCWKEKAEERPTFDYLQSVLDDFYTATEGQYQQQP

[32] = target: AP2-associated protein kinase 1 (Homo sapiens) (UniProt Q2M2I8); assay: AAK1 DiscoveRx kinase panel; conditions: Compound concentration 1.0 uM
[33] = target: MAP/microtubule affinity-regulating kinase 3 (Homo sapiens) (UniProt P27448); assay: MARK3 DiscoveRx kinase panel; conditions: Compound concentration 1.0 uM
[34] = target: Dual specificity mitogen-activated protein kinase kinase 6 (Homo sapiens) (UniProt P52564); assay: MEK6 DiscoveRx kinase panel; conditions: Compound concentration 1.0 uM
[35] = target: 5-hydroxytryptamine receptor 2B (Homo sapiens) (UniProt P41595); conditions: Compound concentration 10.0 uM; remark: listed apart in the source
[36] = target: Serine/threonine-protein kinase Nek6 (Homo sapiens) (UniProt Q9HC98); assay: NEK6 DiscoveRx kinase panel; conditions: Compound concentration 1.0 uM
Rattus norvegicus = organism: Rattus norvegicus; assay: Inhibition of Glycine, Strychnine-Sensitive at 10 µM in the Eurofins-Panlabs radioligand binding assay (Eurofins_assay_239000); conditions: Compound concentration 10.0 uM
[37] = target: Serine/threonine-protein kinase 32A (Homo sapiens) (UniProt Q8WU08); assay: YANK1 DiscoveRx kinase panel; conditions: Compound concentration 1.0 uM
Chain of Serine/threonine-protein kinase 32A (Homo sapiens) (Q8WU08 whole entry): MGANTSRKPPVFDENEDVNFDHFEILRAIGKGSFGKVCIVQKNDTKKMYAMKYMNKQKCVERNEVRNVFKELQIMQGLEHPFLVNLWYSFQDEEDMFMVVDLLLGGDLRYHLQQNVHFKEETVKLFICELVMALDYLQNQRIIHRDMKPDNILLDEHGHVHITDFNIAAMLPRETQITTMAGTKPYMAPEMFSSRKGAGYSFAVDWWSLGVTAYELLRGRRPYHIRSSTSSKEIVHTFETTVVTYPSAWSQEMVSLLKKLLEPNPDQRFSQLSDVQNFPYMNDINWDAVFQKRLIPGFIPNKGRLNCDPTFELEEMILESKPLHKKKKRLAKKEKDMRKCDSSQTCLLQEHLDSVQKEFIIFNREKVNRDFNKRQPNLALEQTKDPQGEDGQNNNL

[38] = target: Serine/threonine-protein kinase Sgk3 (Homo sapiens) (UniProt Q96BR1); assay: SGK3 DiscoveRx kinase panel; conditions: Compound concentration 1.0 uM
Chain of Serine/threonine-protein kinase Sgk3 (Homo sapiens) (Q96BR1 whole entry): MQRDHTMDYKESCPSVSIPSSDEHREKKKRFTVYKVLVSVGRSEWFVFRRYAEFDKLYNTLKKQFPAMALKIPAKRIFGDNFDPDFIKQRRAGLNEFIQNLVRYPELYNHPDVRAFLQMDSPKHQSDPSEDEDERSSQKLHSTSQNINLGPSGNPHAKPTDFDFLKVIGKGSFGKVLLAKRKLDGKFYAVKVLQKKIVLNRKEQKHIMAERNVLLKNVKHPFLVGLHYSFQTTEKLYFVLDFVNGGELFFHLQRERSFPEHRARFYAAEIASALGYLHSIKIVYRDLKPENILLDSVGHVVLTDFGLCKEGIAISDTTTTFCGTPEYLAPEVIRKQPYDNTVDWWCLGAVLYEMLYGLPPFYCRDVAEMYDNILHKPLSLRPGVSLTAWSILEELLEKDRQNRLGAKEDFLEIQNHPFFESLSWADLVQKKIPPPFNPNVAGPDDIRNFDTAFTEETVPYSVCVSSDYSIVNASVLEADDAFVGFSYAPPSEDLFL

[39] = target: Tyrosine-protein kinase receptor TYRO3 (Homo sapiens) (UniProt Q06418); assay: TYRO3 DiscoveRx kinase panel; conditions: Compound concentration 1.0 uM
[40] = target: Serine/threonine-protein kinase PAK 1 (Homo sapiens) (UniProt Q13153); assay: PAK1 DiscoveRx kinase panel; conditions: Compound concentration 1.0 uM
[41] = target: Protein kinase C theta type (Homo sapiens) (UniProt Q04759); assay: PRKCQ DiscoveRx kinase panel; conditions: Compound concentration 1.0 uM
[42] = target: MAP kinase-activated protein kinase 5 (Homo sapiens) (UniProt Q8IW41); assay: MAPKAPK5 DiscoveRx kinase panel; conditions: Compound concentration 1.0 uM
[43] = target: Ribosomal protein S6 kinase alpha-4 (Homo sapiens) (UniProt O75676); assay: RPS6KA4(Kin.Dom.1-N-terminal) DiscoveRx kinase panel; conditions: Compound concentration 1.0 uM
[44] = target: Leukocyte tyrosine kinase receptor (Homo sapiens) (UniProt P29376); assay: LTK DiscoveRx kinase panel; conditions: Compound concentration 1.0 uM
[45] = target: C-X-C chemokine receptor type 2 (Homo sapiens) (UniProt P25025); assay: Chemokine CXCR2 (IL-8RB) Eurofins-Panlabs radioligand binding assay; conditions: Compound concentration 10.0 uM
[46] = target: GABA-A receptor; anion channel (Rattus norvegicus) (UniProt O09028+P15431+P18506+P18508+P19969+P20236+P23574+P23576+P28471+P28473+P30191+P62813+P63079+P63138+Q91ZM7+Q9ES14); conditions: Compound concentration 10.0 uM

Question: What does the source list for COc1cnccc1Nc1nc(-c2nn(Cc3c(F)cc(OCCO)cc3F)c3ccccc23)ncc1OC?
Answer: residual activity [1]: 87%; residual activity [2]: 100%; residual activity [3]: 67%; residual activity [4]: 87%; residual activity [5]: 96%; residual activity [6]: 83%; residual activity [7]: 89%; residual activity [8]: 97%; residual activity [9]: 97%; Cell Proliferation IC50 (MDA-MB-468): 1000 nM; residual activity [10]: 100%; residual activity [11]: 87%; residual activity [12]: 82%; residual activity [13]: 76%; residual activity [14]: 97%; residual activity [15]: 100%; residual activity [16]: 100%; residual activity [17]: 96%; residual activity [18]: 100%; residual activity [19]: 85%; inhibition [20]: -0.37%; residual activity [21]: 88%; inhibition [22]: 1.96%; inhibition [23]: 19%; residual activity [24]: 88%; residual activity [25]: 90%; residual activity [26]: 92%; residual activity [27]: 92%; inhibition [28]: 2%; residual activity [29]: 100%; residual activity [30]: 90%; residual activity [31]: 100%; residual activity [32]: 100%; residual activity [33]: 73%; residual activity [34]: 89%; inhibition [35]: 22%; residual activity [36]: 70%; inhibition (Rattus norvegicus): 0%; residual activity [37]: 71%; residual activity [38]: 99%; residual activity [39]: 56%; residual activity [40]: 100%; residual activity [41]: 77%; residual activity [42]: 100%; residual activity [43]: 91%; residual activity [44]: 100%; inhibition [45]: -3%; inhibition [46]: 7%
